Results on five molecules are retold here after patent US20260293899A1 (priority 2023, published 2026).

As a reminder, the inhibition is the percentage by which the read-out fell short of the control.

Assay [1] concerns Phytophthora infestans. It counts as in vivo. The note with it: 200 ppm; tomato leaf disks; preventative, inoculated 1 day after application; assessed 5-7 days after application.
Assay [2] concerns Pythium ultimum. The assay can be described thus: Pythium ultimum/Liquid Culture (Seedling Damping Off). The class given is cell-based. The note with it: Globisporangium ultimum, read-out: control of Pythium ultimum (inhibition of growth, photometric).
Assay [3] deals with Plasmopara viticola. It counts as in vivo. The following applies: 200 ppm; grape vine leaf disks; preventative, inoculated 1 day after application; assessed 6-8 days after application.

With `COC(=O)Nc1ccc(-c2cnc3ccc(C(=O)N(Cc4ccco4)c4ccc(Cl)cc4)cn23)cn1` [Compound 6, methyl N-[5-[6-[(4-chlorophenyl)-(2-furylmethyl)carbamoyl]imidazo[1,2-a]pyridin-3-yl]-2-pyridyl]carbamate], the “control of Phytophthora infestans (percent disease control compared to untreated)” value in assay [1] is on record as “at least 80%”. Besides, the inhibition at 20 ppm in assay [2] was at least 80%.
As for `COC(=O)Nc1ccc(-c2cnc3ccc(C(=O)N(Cc4cnn(C)c4)c4ccc(F)c(OC)c4)cn23)cn1` [Compound 2, methyl N-[5-[6-[(4-fluoro-3-methoxy-phenyl)-[(1-methylpyrazol-4-yl)methyl]carbamoyl]imidazo[1,2-a]pyridin-3-yl]-2-pyridyl]carbamate], in assay [3], the “control of Plasmopara viticola (percent disease control compared to untreated)” value is listed as “at least 80%”. Also, the “control of Phytophthora infestans (percent disease control compared to untreated)” value in assay [1] is recorded as “at least 80%”. Also, in assay [2], the inhibition at 20 ppm was at least 80%.
With `COC(=O)Nc1ccc(-c2cnc3c(C)cc(C(=O)N(Cc4cnn(C)c4)c4ccc(F)c(OC)c4)cn23)cn1` [Compound 1, methyl N-[5-[6-[(4-fluoro-3-methoxy-phenyl)-[(1-methylpyrazol-4-yl)methyl]carbamoyl]-8-methyl-imidazo[1,2-a]pyridin-3-yl]-2-pyridyl]carbamate], in assay [3], the “control of Plasmopara viticola (percent disease control compared to untreated)” value was “at least 80%”. In addition, the “control of Phytophthora infestans (percent disease control compared to untreated)” value in assay [1] is given as “at least 80%”. Moreover, in assay [2], the inhibition at 20 ppm was at least 80%.
For `COC(=O)Nc1ccc(-c2cnc3ccc(C(=O)N(Cc4cnn(C)c4)c4ccc(F)cc4)cn23)cn1` [Compound 8, methyl N-[5-[6-[(4-fluorophenyl)-[(1-methylpyrazol-4-yl)methyl]carbamoyl]imidazo[1,2-a]pyridin-3-yl]-2-pyridyl]carbamate], in assay [3], the “control of Plasmopara viticola (percent disease control compared to untreated)” value is given as “at least 80%”. Moreover, the “control of Phytophthora infestans (percent disease control compared to untreated)” value in assay [1] was “at least 80%”. Further, in assay [2], the inhibition at 20 ppm was at least 80%.
On to `COC(=O)Nc1ccc(-c2cnc3ccc(C(=O)N(Cc4ccccc4)c4ccc(F)cc4)cn23)cn1` [Compound 7, methyl N-[5-[6-[benzyl-(4-fluorophenyl)carbamoyl]imidazo[1,2-a]pyridin-3-yl]-2-pyridyl]carbamate], for which, in assay [2], the inhibition at 20 ppm is at least 80%.
